The record followed here is publication PMC8981555 (RSC Advances, 2022).

Test [1] deals with T1, jack bean urease (Canavalia ensiformis, UniProt P07374). Nature of the test: Urease inhibition assay. Particulars: for % inhibition: value in parentheses after IC50, concentration not given. The format is biochemical.
The target in test [2] is T1, jack bean urease. In words: Enzyme kinetic studies. The format is biochemical. The following applies: for Mode of inhibition: Lineweaver–Burk plots.
The mark [3] stands for this setting: at 20 μM concentration of the inhibitor.

Where two headings read alike, the source gives them in different places.

T1 sequence (P07374 whole entry, looked up): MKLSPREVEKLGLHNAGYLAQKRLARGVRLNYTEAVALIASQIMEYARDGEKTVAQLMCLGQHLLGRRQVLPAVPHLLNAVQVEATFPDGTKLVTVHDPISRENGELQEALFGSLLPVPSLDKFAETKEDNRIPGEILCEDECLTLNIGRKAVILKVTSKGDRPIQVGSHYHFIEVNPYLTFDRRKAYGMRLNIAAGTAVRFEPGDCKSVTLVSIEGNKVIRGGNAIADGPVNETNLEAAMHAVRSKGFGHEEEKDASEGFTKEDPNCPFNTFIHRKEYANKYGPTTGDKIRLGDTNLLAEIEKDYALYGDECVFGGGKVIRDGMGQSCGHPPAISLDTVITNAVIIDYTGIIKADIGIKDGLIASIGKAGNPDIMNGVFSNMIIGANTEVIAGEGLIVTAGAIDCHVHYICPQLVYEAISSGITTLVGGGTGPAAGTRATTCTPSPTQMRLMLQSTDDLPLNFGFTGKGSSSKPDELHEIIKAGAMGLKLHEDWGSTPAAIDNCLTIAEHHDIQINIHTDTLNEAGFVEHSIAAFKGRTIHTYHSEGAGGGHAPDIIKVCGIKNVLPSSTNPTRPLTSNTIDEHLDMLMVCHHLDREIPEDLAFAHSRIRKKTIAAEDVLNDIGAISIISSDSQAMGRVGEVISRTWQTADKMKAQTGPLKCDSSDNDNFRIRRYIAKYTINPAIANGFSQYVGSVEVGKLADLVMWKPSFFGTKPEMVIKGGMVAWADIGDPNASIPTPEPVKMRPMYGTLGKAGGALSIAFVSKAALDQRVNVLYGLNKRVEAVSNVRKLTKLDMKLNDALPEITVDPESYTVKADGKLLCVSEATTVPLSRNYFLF

A word on the IC50: it is the concentration at which inhibition is half-maximal. Read a low IC50 as higher potency. As a reminder, the % inhibition is the percentage by which the read-out fell short of the control. As to `CCCCCCCC(=O)NC(=S)Nc1cc(C)ccc1C` [Compound 3d, N-(2′,5′-Dimethylphenylcarbamothioyl) octanamide], in test [1], the IC50 amounted to 60.1 ± 0.78 µM and the “% inhibition” value turned out to be 61.3%.

In the case of `CCCCCCCC(=O)NC(=S)Nc1ccc(C)c(C)c1` [Compound 3f, N-(3′,4′-Dimethylphenylcarbamothioyl) octanamide], in test [1], the IC50 was 40.2 ± 0.45 µM and the “% inhibition” value is given as 76.2%.

What is called Ki is the dissociation constant of the complex between target and ligand, obtained from inhibition or displacement. Lower therefore signals higher affinity. Consider `CCCCCCCC(=O)NC(=S)Nc1c(C)cccc1C` [Compound 3g, N-(2′,6′-Dimethylphenylcarbamothioyl) octanamide], for which, in test [1], inhibition was half-maximal at 15.2 ± 0.58 µM (IC50) and the “% inhibition” value was found to be 96.3%. In addition, in test [2], the inhibition constant (Ki) was determined as 9.28 µM and the Mode of inhibition entry was “Competitive”. In test [2] (setting [3]), the “K m(app)” value came out at 6.09 mM and the “V max(app)” value is 15.63 µM/min.

Turning to `CCCCCCCC(=O)NC(=S)Nc1cc([N+](=O)[O-])ccc1OC` [Compound 3h, N-(2′-Methoxy-5′-nitrophenylcarbamothioyl) octanamide], in test [1], the IC50 was 30.6 ± 0.75 µM and the “% inhibition” value was found to be 88.1%.

On to `CCCCCCCC(=O)NC(=S)Nc1c(Cl)cccc1Cl` [Compound 3i, N-(2′,6′-Dichlorophenylcarbamothioyl) octanamide], for which, in test [1], the IC50 turned out to be 22 ± 0.45 µM and the “% inhibition” value came to 91.4%.

For `CCCCCCCC(=O)NC(=S)Nc1ccccc1Sc1ccccc1` [Compound 3j, N-(2′-(Phenylthio)phenylcarbamothioyl) octanamide], in test [1], half-maximal inhibition (IC50) required 39.1 ± 0.72 µM and the “% inhibition” value is reported as 86.5%.

Turning to `CCCCCCCC(=O)NC(=S)Nc1cccc(C)c1C` [Compound 3k, N-(2′,3′-Dimethylphenylcarbamothioyl) octanamide], in test [1], 46.2 ± 0.78 µM corresponded to half-maximal inhibition (IC50) and the “% inhibition” value amounted to 85.8%.

Take `CCCCCCCC(=O)NC(=S)Nc1ccc(C(F)(F)F)cc1` [Compound 3m, N-(4′-(Trifluoromethyl)phenylcarbamothioyl) octanamide]: in test [1], the half-maximal inhibitory concentration (IC50) was found to be 31.16 ± 0.25 µM and the “% inhibition” value is recorded as 95.9%.

Take `CCCCCCCCCCCC(=O)NC(=S)Nc1ccc(Cl)c(Cl)c1` [Compound 3p, N-(3′,4′-Dichlorophenylcarbamothioyl) dodecanamide]: in test [1], the IC50 is 20.2 ± 0.48 µM and the “% inhibition” value came out at 85.2%.

As for `NC(N)=S` [Thiourea, reference compound], the “% inhibition” value in test [1] amounted to 92.1%. For the same compound, in test [2], the Mode of inhibition entry is recorded as “Competitive”. The “K m(app)” value in test [2] (setting [3]) was determined as 2.18 mM. Moreover, the inhibition constant (Ki) in test [2] (derived from Lineweaver–Burk and Dixon plots) amounted to 18.2 µM.
